“Also recorded” adds a separate entry of the source. Like-named read-outs stand apart in the source and are kept apart here. Each block holds one molecule with its values, some of them ahead of it.
How the values were obtained:
[1] = tested on: SERCA2 isoform; design: method as in Kang et al. [43] and Nguyen et al. [44]; settings: ref Kang et al. [43] and Nguyen et al. [44]; cited from earlier work
[2] = target: T1, SERCA1a (Oryctolagus cuniculus, UniProt P04191); experiment: SERCA1a ATPase activity, NADH-coupled enzyme assay in sarcoplasmic reticulum vesicles; assay type: biochemical, rabbit; settings: for Effect on SERCA1a activity: 2 min; for Effect on SERCA1a activity in the presence of PAL: 0.65 mM PAL; for Effect on SERCA1a activity in the presence of MGX: 3 mM MGX; for Concentration from which the SERCA1a activating effect starts: concentration-dependent activation; for IC50: read-out: IC50, reduction in SERCA1a activity; for PAL SERCA1a Activity: in the presence of PAL;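 on all read-outs here: rabbit fast-twitch skeletal muscle SR vesicles with Ca2+ ionophore A23187, ATP hydrolysis rate followed as NADH absorbance loss at 340 nm, 37 °C, started by 10 µM CaCl2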
T1 construct: Sarcoplasmic reticulum (SR) vesicles were isolated from the fast-twitch skeletal muscle; from tissue; host or cells: rabbit fast-twitch skeletal muscle, sarcoplasmic reticulum vesicles

[3] = tested on: INS-1E beta cells; experiment: MTT viability assay in INS-1E beta cells; assay type: cell-based; settings: for IC50: MTT, read-out: IC50, INS-1E cell viability; for PAL INS-1E Viability: in the presence of PAL; for Effect on INS-1E viability in the presence of MGX: 2.5 mM MGX; for Concentrations protecting against MGX-induced beta cell viability decrease: MGX 2.5 mM
Protocol: The INS-1E insulinoma pancreatic beta cell line (kindly provided by Prof. Claes Wollheim, University of Geneva) was cultured in RPMI 1640 (11 mM glucose, Sigma, St. Louis, MO, USA). The RPMI 1640 was supplemented with 100 U/mL penicillin, 100 μg/mL streptomycin, 2 mM L-glutamine, 1 mM Na pyruvate, 55 μM 2-mercaptoethanol, 10 mM HEPES, 1% nonessential amino acids, and 10% fetal bovine serum (pH 7.0–7.4). Cells were cultivated in a humidified incubator containing 5% CO2 at 37 °C. All experiments were conducted using cells from passages 40 to 70. […] Subsequent measurements were then performed using a cytotoxicity MTT assay and an insulin release assay.
The MTT (Sigma, St. Louis, MO, USA) reduction assay was used as an indicator of cell damage and was conducted following a standard protocol. INS-1E cells (5 × 10^4 cells per well) were seeded into 96-microwell plates. The cells were preincubated for different periods with or without various concentrations of individual compounds for 24 h (5% CO2 at 37 °C). MTT was introduced to achieve a final concentration of 0.5 mg/mL in an RPMI 1640 medium. Following a 4 h incubation, the MTT medium was removed. The addition of DMSO (100 µL) was added and left to stand for 15 min to solubilize the formazan formed. The absorbance was recorded at 570 nm using a microplate reader (Infinite M200, Tecan, Switzerland).

[4] = tested on: INS-1E beta cells; experiment: Insulin release from INS-1E beta cells (RIA); assay type: cell-based; settings: for Insulin release from non-stimulated cells / Insulin release from Glu-stimulated cells: 50 µM, except CUR and THCU 10 µM, 24 h; for Insulin release from non-stimulated cells / Insulin Secretion Non-Stimulated: 3 mM glucose; for Insulin release from Glu-stimulated cells / Insulin Secretion Stimulated: 16.7 mM glucose
Protocol: The INS-1E insulinoma pancreatic beta cell line (kindly provided by Prof. Claes Wollheim, University of Geneva) was cultured in RPMI 1640 (11 mM glucose, Sigma, St. Louis, MO, USA). The RPMI 1640 was supplemented with 100 U/mL penicillin, 100 μg/mL streptomycin, 2 mM L-glutamine, 1 mM Na pyruvate, 55 μM 2-mercaptoethanol, 10 mM HEPES, 1% nonessential amino acids, and 10% fetal bovine serum (pH 7.0–7.4). Cells were cultivated in a humidified incubator containing 5% CO2 at 37 °C. All experiments were conducted using cells from passages 40 to 70. The cells were pre-treated with various concentrations of individual compounds (5–200 μM) for 24 h with or without MGX (2.5 mM) and PAL (0.4 mM). Subsequent measurements were then performed using a cytotoxicity MTT assay and an insulin release assay.
Insulin release in response to glucose was measured in INS-1E beta cells ([…]). Briefly, after 24 h preincubation with individual compounds, beta cells were washed with a glucose-free KRBH buffer. Subsequently, cells were incubated at 37 °C for 30 min in a glucose-free KRBH buffer, followed by another 30 min incubation at 37 °C in a KRBH buffer containing either 3 mM glucose (non-stimulating concentration) or 16.7 mM glucose (insulin-stimulating concentration). The supernatants were then collected and analyzed using an RIA kit (Mercodia, Uppsala, Sweden) for insulin release, with rat insulin as the standard.

[5] = SR vesicles, no stressor, read-out: EC50, SERCA1a activation

T1 sequence (P04191 1-994 isoform P04191-2): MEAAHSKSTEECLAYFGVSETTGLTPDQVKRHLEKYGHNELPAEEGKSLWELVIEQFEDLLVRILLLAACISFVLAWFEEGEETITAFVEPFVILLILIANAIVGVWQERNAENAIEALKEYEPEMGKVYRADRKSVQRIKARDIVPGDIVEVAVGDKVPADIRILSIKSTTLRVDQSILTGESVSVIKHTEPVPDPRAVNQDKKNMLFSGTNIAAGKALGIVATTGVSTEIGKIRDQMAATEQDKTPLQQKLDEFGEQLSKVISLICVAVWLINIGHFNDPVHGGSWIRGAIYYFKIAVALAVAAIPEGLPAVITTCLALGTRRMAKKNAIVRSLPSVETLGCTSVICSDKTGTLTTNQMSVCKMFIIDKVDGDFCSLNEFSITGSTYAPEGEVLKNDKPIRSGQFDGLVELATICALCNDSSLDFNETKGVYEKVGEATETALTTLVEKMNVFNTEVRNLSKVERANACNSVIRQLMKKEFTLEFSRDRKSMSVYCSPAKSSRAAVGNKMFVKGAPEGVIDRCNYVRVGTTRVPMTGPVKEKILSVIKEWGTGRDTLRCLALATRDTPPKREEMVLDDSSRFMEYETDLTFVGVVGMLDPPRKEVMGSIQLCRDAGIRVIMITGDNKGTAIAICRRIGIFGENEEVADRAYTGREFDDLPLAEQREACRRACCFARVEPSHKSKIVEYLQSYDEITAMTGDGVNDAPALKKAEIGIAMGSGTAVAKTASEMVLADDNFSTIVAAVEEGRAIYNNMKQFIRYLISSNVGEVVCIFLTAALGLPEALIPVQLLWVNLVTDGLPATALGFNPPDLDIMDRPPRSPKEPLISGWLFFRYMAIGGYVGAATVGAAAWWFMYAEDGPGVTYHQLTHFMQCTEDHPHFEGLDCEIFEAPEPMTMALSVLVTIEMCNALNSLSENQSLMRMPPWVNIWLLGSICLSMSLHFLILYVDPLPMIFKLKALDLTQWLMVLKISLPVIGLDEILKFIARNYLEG

Molecule: Cc1ccc2cccc(NC(=O)c3ccc(OC(C)C)cc3)c2n1 [CDN1163]
Concentrations required for efficient SERCA activation [1]: 1 to 10 µM

Molecule: CC(=O)C=O [MGX, methylglyoxal]
IC50 ([2]; SR vesicles): 2980 µM
IC50 [3]: 2540 µM

Molecule: Oc1cc(O)cc(/C=C/c2ccc(O)cc2O)c1 [ORES, Oxyresveratrol]
Effect on SERCA1a activity in the presence of MGX ([2]; 5–200 μM): further decreased SERCA1a activity
PAL SERCA1a Activity [2]: -
PAL INS-1E Viability [3]: -
Insulin Secretion Non-Stimulated [4]: -

Molecule: CCCCCCCCCCCCCCCC(=O)O [PAL, palmitate]
IC50 ([2]; SR vesicles): 650 µM
IC50 ([3]; INS-1E): 410 µM

Molecule: COc1cc(CCC(=O)CC(=O)CCc2ccc(O)c(OC)c2)ccc1O [THCU, Tetrahydrocurcumin]
MGX SERCA1a Activity ([2]; in the presence of MGX): -
PAL SERCA1a Activity [2]: -
Effect on INS-1E cell viability ([3]; 20 µM, 24 h): stimulating effect on cell viability
Effect on INS-1E viability in the presence of MGX ([3]; 20 µM): protective effect
Concentrations protecting against MGX-induced beta cell viability decrease [3]: < 20 µM
Insulin release from non-stimulated cells [4]: significant increase in insulin release
Insulin release from Glu-stimulated cells [4]: significant increase in insulin release

Molecule: Curcumin
Effect on SERCA1a activity in the presence of PAL ([2]; 5–200 μM): additional decrease in SERCA1a activity
Effect on SERCA1a activity in the presence of MGX ([2]; 10 µM): prevented MGX-mediated decline
Effect on SERCA1a activity in the presence of MGX ([2]; 20–50 µM): further decreased SERCA1a activity
Effect on INS-1E viability in the presence of PAL ([3]; 0.4 mM PAL, 5–200 μM): protection
Effect on INS-1E viability in the presence of MGX ([3]; 5 and 10 µM): protective effect
Concentrations protecting against MGX-induced beta cell viability decrease [3]: < 20 µM
Insulin release from non-stimulated cells [4]: significant increase in insulin release
Insulin release from Glu-stimulated cells [4]: significant increase in insulin release

Now from value to molecule, other results behind:

Effect on SERCA1a activity ([2]; 5–200 μM): increase SERCA1a activity
Molecule: Oc1cc(O)c2cc(O)c(-c3ccc(O)c(O)c3)[o+]c2c1 [CYA, Cyanidin chloride]

Increase in SERCA1a activity ([2]; 50 μM): approximately 150%
Effect on SERCA1a activity in the presence of PAL ([2]; 5–200 μM): most profound protective effect
Effect on SERCA1a activity ([2]; 5–200 μM): increase SERCA1a activity
EC50 [2, 5]: 33.2 µM
Concentration from which the SERCA1a activating effect starts [2]: ≥ 30 µM
Molecule: O=c1oc2c(O)c(O)cc3c(=O)oc4c(O)c(O)cc1c4c23 [EA, Ellagic acid]
Effect on SERCA1a activity in the presence of PAL ([2]; 50 µM): alleviated PAL-induced injury almost to control values
Effect on SERCA1a activity in the presence of MGX ([2]; 5–200 μM): potent concentration-dependent protective effect
Effect on INS-1E viability in the presence of PAL ([3]; 0.4 mM PAL, 5–200 μM): protection
Insulin release from non-stimulated cells [4]: significant increase in insulin release
Insulin release from Glu-stimulated cells [4]: significant increase in insulin release

Effect on SERCA1a activity in the presence of PAL ([2]; 5–200 μM): protective effect
Effect on SERCA1a activity ([2]; 5–200 μM): increase SERCA1a activity
EC50 [2, 5]: 36.9 µM
Concentration from which the SERCA1a activating effect starts [2]: ≥ 30 µM
Molecule: CCCCC[C@H](O)CC(=O)CCc1ccc(O)c(OC)c1 [GIN, [6]-Gingerol]
Effect on SERCA1a activity in the presence of PAL ([2]; 50 and 100 μM): protected against the decrease in SERCA1 activity
Effect on SERCA1a activity in the presence of MGX ([2]; 5–200 μM): potent concentration-dependent protective effect
Effect on SERCA1a activity in the presence of MGX ([2]; 100–200 μM): protected against the decrease in SERCA1 activity
Insulin release from non-stimulated cells [4]: did not induce an increase
Insulin release from Glu-stimulated cells [4]: slight increase
Insulin Secretion Non-Stimulated [4]: -

SERCA1a Activity ([2]; control conditions): -
PAL SERCA1a Activity [2]: -
Molecule: O=c1c(O)c(-c2cc(O)c(O)c(O)c2)oc2cc(O)cc(O)c12 [MYR, Myricetin]
Effect on INS-1E viability in the presence of PAL ([3]; 0.4 mM PAL, 5–200 μM): highest degree of protection
INS-1E viability restored, % of the control cell value ([3]; 0.4 mM PAL, 10 and 50 µM): approximately 80%

EC50 ([2]; in the presence of MGX (3 mM), read-out: EC50, protection of SERCA1 activity against MGX): 112 µM
Molecule: Oc1ccc(/C=C/c2cc(O)cc(O)c2)cc1 [RES, Resveratrol]
Effect on SERCA1a activity in the presence of MGX ([2]; 5–200 μM): potent concentration-dependent protective effect
Effect on INS-1E viability in the presence of PAL ([3]; 0.4 mM PAL, 5–200 μM): did not prevent the decrease
Effect on INS-1E viability in the presence of MGX ([3]; 5–200 μM, 24 h): no effect; also recorded: did not prevent the decrease
MGX INS-1E Viability ([3]; in the presence of MGX): -
PAL INS-1E Viability [3]: -
Insulin Secretion Non-Stimulated [4]: -
Insulin Secretion Stimulated [4]: -

Effect on SERCA1a activity ([2]; 5–200 μM): does not
Molecule: CCCCC/C=C/C(=O)CCc1ccc(O)c(OC)c1 [SHO, [6]-Shogaol]
Effect on SERCA1a activity in the presence of PAL ([2]; 5–200 μM): additional decrease in SERCA1a activity; also recorded: no preventive effect
Effect on SERCA1a activity in the presence of MGX ([2]; 5–200 μM): further decreased SERCA1a activity; also recorded: no preventive effect
Insulin Secretion Non-Stimulated [4]: -
Insulin Secretion Stimulated [4]: -

— PMC11593225, “Polyphenolic Compounds Activate SERCA1a and Attenuate Methylglyoxal- and Palmitate-Induced Impairment in Pancreatic INS-1E Beta Cells” (Cells, 2024)
